{
  "source": "paper PMC11022681",
  "about": "(Journal of the American Chemical Society, 2023)",
  "test": "Kinetic inertness: transmetalation with excess Zn2+",
  "type": "physicochemical",
  "conditions": "25 equivalents of Zn2+, 37 °C, pH 6.0 MES buffer",
  "data": [
    {"substance": "Mn-PyC3A", "values": [
      {"measurement": "pseudo-first-order rate constant of transmetalation", "result": "5.5 ± 0.4 ×10^−4 s^−1"}
    ]}
  ]
}
